# Where “and” joins values, the source holds several entries; their conditions need not be identical. Equal entries are not always repeated. Where two headings read alike, the source gives them in different places.
# Columns and labels:
# purified HHAT = target: T1, purified HHAT (Homo sapiens, UniProt Q5VTY9); assay: Acyl-cLIP assay, inhibition of purified HHAT; type: biochemical; settings: for LLEAcyl-cLIP: from Acyl-cLIP IC50 and clogDpH7.4; for IC50: purified HHAT, read-out: Acyl-cLIP Assay IC50 (CI95); for fold more potent than analogues 19, 32, and 34: meta-methyl on 4-position aromatic ring
# T1 construct: made in house
# Method in brief: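 Percent inhibition was first taken at 50 μM and 25 μM, then IC50 derived from variable-slope dose-response curves of initial rate constants, normalized against DMSO and HHAT-free samples. Reaction: purified DDM-solubilized HHAT transfers palmitoyl from palmitoyl-CoA onto a FAM-SHH peptide (MES, pH 6.5), monitored 30 min by fluorescence anisotropy.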
# [1] = MTS assay, cytotoxicity (72 h); type: cell-based; settings: human, HEK293a SHH+ cells, 72 h; for CC50 at 72 h: read-out: MTS Assay (HEK293a SHH+) CC50 (CI95)
# Method in brief: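 Cells plated at 5000/well, cultured 24 h, then exposed to analogues (0.14–100 μM final) in DMEM/10% FBS for 72 h. MTS/PMS added for 3 h at 37 °C and absorbance read at 490 nm; data normalised to DMSO vehicle and puromycin (2 μg/mL) wells, curves fitted with a variable-slope sigmoidal model.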
# [2] = system: HH signaling (HEK293a SHH+ conditioned media on SHH-Light2 cells); assay: Light2 dual-luciferase cell-based HH signaling assay (Firefly)
# Experimental: Subsequently, the effect of analogues on HH signaling was investigated using a cellular luciferase reporter assay. Light2 cells derived from NIH3T3 cells constitutively express Renilla luciferase as an internal control for cell density alongside Firefly luciferase under the control of a HH-responsive Gli promoter.[43] HEK293a SHH^+ cells were incubated with varying inhibitor concentrations and SHH-containing conditioned media transferred to the NIH3T3-Light2 cells to mimic paracrine signaling[30],[35] (Figure 6A).
# The Light2 cell-based signaling assay has been described previously.[35] Briefly, HEK293a SHH^+ cells were plated at 120,000 cells/well of a 12-well plate in a volume of 1 mL/well and cultured as described above. After 24 h, cells were washed with PBS, followed by addition of 1 mL of media containing 0.2% DMSO or varying inhibitor concentrations in DMSO (0.041–30 μM final). Additionally, SHH-Light2 cells were plated at 20,000 cells/well of a 96-well plate in 50 μL media. After another 24 h, 300 μL of the conditioned media were collected from each well of the treated HEK293a SHH^+ cells, centrifuged at 1000g for 10 min to remove detached cells and split into three wells of the SHH-Light2 cells (100 μL/well; 150 μL final volume in each well). The treated Light2 cells were cultured for another 48 h and subsequently washed with PBS. Firefly and Renilla luciferase activity was measured using the Dual-Luciferase reporter system (Promega Corporation, USA). Then 20 μL of 1× passive lysis buffer were added to each well. After 30 min at RT, 5 μL of each lysate were transferred to a white opaque 96-well plate. Then 20 μL/well of luciferase assay reagent II was added and the luminescence immediately recorded using a SpectraMax i3x plate reader (Molecular Devices LLC). Subsequently, 20 μL/well of 1× Stop&Glo substrate in Stop&Glo buffer was added and the luminescence immediately recorded for a second time. Data was evaluated using a “sigmoidal dose response (variable slope)” model in GraphPad Prism 5 (GraphPad Software, Inc.). The luminescence signal of the Firefly luciferase was normalized to the DMSO vehicle (100%) and the unconditioned media (0%) controls.
# [3] = Firefly luciferase, Light2 cells, read-out: HH signaling inhibition EC50 (CI95)
# T1 sequence (Q5VTY9 whole entry): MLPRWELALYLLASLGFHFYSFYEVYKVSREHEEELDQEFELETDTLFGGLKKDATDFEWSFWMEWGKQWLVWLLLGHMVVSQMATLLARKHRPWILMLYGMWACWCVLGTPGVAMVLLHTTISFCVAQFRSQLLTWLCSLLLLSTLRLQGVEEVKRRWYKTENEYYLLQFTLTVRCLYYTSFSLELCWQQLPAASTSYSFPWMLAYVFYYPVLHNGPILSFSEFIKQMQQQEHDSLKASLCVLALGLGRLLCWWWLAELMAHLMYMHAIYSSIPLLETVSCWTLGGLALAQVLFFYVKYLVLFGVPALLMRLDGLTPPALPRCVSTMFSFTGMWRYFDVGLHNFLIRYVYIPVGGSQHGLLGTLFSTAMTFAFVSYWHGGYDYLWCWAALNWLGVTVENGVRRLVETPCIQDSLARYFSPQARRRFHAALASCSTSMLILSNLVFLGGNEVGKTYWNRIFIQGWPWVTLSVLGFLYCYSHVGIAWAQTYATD
SMILES,inhibition at 25 µM (purified HHAT) [%],inhibition at 50 µM (purified HHAT) [%],LLEAcyl-cLIP (purified HHAT),IC50 (purified HHAT),CC50 at 72 h [1] [µM],"viability at 72 h, 12.5 µM [1] [%]","viability at 72 h, 25 µM [1] [%]","EC50 [2, 3] [µM]","fold more potent than analogues 19, 32, and 34 (purified HHAT)",HHAT inhibition in the acyl-cLIP assay (purified HHAT),effect on HH signaling [2],"fold increase in potency compared to racemate (purified HHAT; enantiomer vs racemate (29 vs 21, 30 vs 24, 43 vs 39)) [fold]","EC50 ([2]; Light2 luciferase reporter, read-out: EC50 against HH signaling) [µM]"
C=CCNCC(=O)N1CCc2sccc2C1COc1ccc(Cl)cc1 (stereo not drawn) [Compound 2],73 ± 9,87 ± 2,2.48,5.76 µM,35.9,56 ± 3,50 ± 2,–,–,–,–,–,–
CC(=O)N1CCc2sccc2C1c1ccccc1 (stereo not drawn) [Compound 5],66 ± 7,85 ± 5,2.39,5.3 µM and 5.34 µM,13.9,73 ± 2,76 ± 4,4.56,–,–,–,–,–
CCC(C)CNCC(=O)N1CCc2sccc2C1c1cccc(C)c1 (stereo not drawn) [Compound 17],93 ± 7,88 ± 2,2.91,2.13 µM,40.7,42 ± 3,55 ± 1,1.17,2–5 fold,–,–,–,–
CCC(C)CNCC(=O)N1CCc2sccc2C1c1cccc(C)n1 (stereo not drawn) [Compound 22],96 ± 1,103 ± 1,4.20,2.58 µM,> 50,92 ± 1,89 ± 3,0.58,2–5 fold,–,–,–,–
Cc1cccc(C2c3ccsc3CCN2C(=O)CNCC(C)C)n1 (stereo not drawn) [Compound 24],91 ± 4,95 ± 4,4.90,1.33 µM,> 50,88 ± 3,80 ± 3,1.18,–,–,–,–,–
Cc1cccc([C@@H]2c3ccsc3CCN2C(=O)CNCC(C)C)n1 [Compound 28],13 ± 4,18 ± 2,–,> 100 µM,> 100,108 ± 7,105 ± 4,> 30,–,no inhibitory activity,inactive,–,–
Cc1cccc([C@H]2c3ccsc3CCN2C(=O)CNCC(C)C)n1 [Compound 30],92 ± 4,95 ± 4,5.14,< 10 µM,> 50,101 ± 6,98 ± 5,0.1,–,–,–,2,0.099
